We go through two compounds from patent US7700648B2, “Ester compound and its use” (Sumitomo Chemical Company Limited, priority 2004, dated 2010).

In the test the test system is common mosquitoes (Culex pipiens pallens). Description: Knock-down test on common mosquitoes by oil solution spray in a cubic chamber. It counts as in vivo. The conditions noted are these: 0.7 ml of 0.025% oil solution sprayed in 70 cm cubic chamber; ten female Culex pipiens pallens; counted for 10 minutes. The text has this:
A solution of 0.025 part of the present compound (1) dissolved with 10 parts of dichloromethane was mixed with 89.975 parts of deodorized kerosene to give a 0.025% oil solution.
Ten female common mosquitoes (Culex pipiens pallens) were left in a cubic chamber (70 cm at side). Seven-tenths (0.7) ml of the 0.025% oil solution of the present compound (1) was sprayed with a spray gun at a pressure of 8.8×10^4 Pa from a small window on the side of the chamber. Then, the number of the knocked-down insects was counted at times for 10 minutes. The time (KT50) for knocking down half of the tested insects was calculated from the result.
For the comparison, 5-benzyl-3-furylmethyl 1R-trans-2,2-dimethyl-3-((E)-2-cyano-3-ethoxy-3-oxo-1-propenyl)cyclopropanecarboxylate (hereinafter, referred to as the comparison compound) was also subjected to the above mentioned test. The test was done twice for one compound.

Structures are written as SMILES.

For `CCOC(=O)/C(C#N)=C/[C@@H]1[C@@H](C(=O)OCc2coc(Cc3ccccc3)c2)C1(C)C` (relative stereo) [The comparison compound, 5-benzyl-3-furylmethyl 1R-trans-2,2-dimethyl-3-((E)-2-cyano-3-ethoxy-3-oxo-1-propenyl)cyclopropanecarboxylate], the “KT50 (time for knocking down half of the tested insects)” value was 6.1 min. The result for `COC(=O)/C(C#N)=C/C1C(C(=O)OCc2coc(Cc3ccccc3)c2)C1(C)C` (stereo not drawn) [The present compound (1), 5-benzyl-3-furylmethyl 1R-trans-2,2-dimethyl-3-((E)-2-cyano-3-methoxy-3-oxo-1-propenyl)cyclopropan ecarboxylate] reads 0.7 min.
